Test results from the supplement of paper PMC10307832.

Assays:
[1] = compound: CC(C)(C)c1cc(NC(=O)Nc2ccc(-c3cn4c(n3)sc3cc(OCCN5CCOCC5)ccc34)cc2)no1 [Quizartinib] + COc1cc2c(Oc3ccc(NC(=O)C4(C(=O)Nc5ccc(F)cc5)CC4)cc3F)ccnc2cc1OCCCN1CCOCC1 [Foretinib] (partner 0.25 µM); assay: relative viability (nuclei count vs DMSO), 5 days (fraction); higher = more cells survive
In short: (§1)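 Relative viability was taken as the ratio of nuclei in treated wells to nuclei in vehicle wells. Lung cancer cell lines in 1536-well plates received compounds by pin tool one day after seeding, either one drug alone or a fixed anchor-drug dose plus five library-drug doses (not always all listed) in √10 steps. Nuclei were counted on 4× images after 5 days of treatment, and values are medians of duplicate plates.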

[2] = compound: COCC[n+]1c2c(n(Cc3cnccn3)c1C)C(=O)c1ccccc1C2=O [YM155] + Cc1cc(Nc2cc(N3CCN(C)CC3)nc(Sc3ccc(NC(=O)C4CC4)cc3)n2)n[nH]1 [Tozasertib] (partner 0.1 µM); assay: as above
In short: as §1

Cell Line | relative viability ([1]; first compound 0.001 µM) | relative viability ([1]; first compound 0.003162 µM) | relative viability ([1]; first compound 0.01 µM) | relative viability ([1]; first compound 0.03162 µM) | relative viability ([1]; first compound 0.1 µM) | relative viability ([2]; first compound 0.002 µM) | relative viability ([2]; first compound 0.006325 µM) | relative viability ([2]; first compound 0.02 µM) | relative viability ([2]; first compound 0.06325 µM)
SW 1573 | 0.946 | 0.886 | 0.896 | 1.02 | 1.04 | 0.132 | 0.155 | 0.0846 | 0.0818
UMC-11 | – | 0.972 | 1.17 | 0.957 | 1.1 | 0.209 | 0.199 | 0.213 | 0.212
